Results reported in paper PMC11420776 (RSC Advances, 2024).

Legend:
LOX IMIV (melanoma) = assay: NCI 60-cell one-dose antiproliferative screen; assay type: cell-based, human; details: one dose 10 μM
OVCAR-3 (ovarian cancer) = assay: NCI 60-cell one-dose antiproliferative screen; assay type: cell-based, human; details: one dose 10 μM
[1] = tested on: NCI-H226 (NSC lung cancer); assay: NCI 60-cell one-dose antiproliferative screen; assay type: cell-based, human; details: one dose 10 μM
[2] = tested on: NCI-H23 (NSC lung cancer); assay: NCI 60-cell one-dose antiproliferative screen; assay type: cell-based, human; details: one dose 10 μM
COLO-205 (colon cancer) = assay: NCI 60-cell one-dose antiproliferative screen; assay type: cell-based, human; details: one dose 10 μM
HCT-116 (colon cancer) = assay: NCI 60-cell one-dose antiproliferative screen; assay type: cell-based, human; details: one dose 10 μM
UO-31 (renal cancer) = assay: NCI 60-cell one-dose antiproliferative screen; assay type: cell-based, human; details: one dose 10 μM
MDA-MB-435 (melanoma) = assay: NCI 60-cell one-dose antiproliferative screen; assay type: cell-based, human; details: one dose 10 μM
IGROV1 (ovarian cancer) = assay: NCI 60-cell one-dose antiproliferative screen; assay type: cell-based, human; details: one dose 10 μM
[3] = tested on: MDA-MB-231/ATCC (breast cancer); assay: NCI 60-cell one-dose antiproliferative screen; assay type: cell-based, human; details: one dose 10 μM
DU-145 (prostate cancer) = assay: NCI 60-cell one-dose antiproliferative screen; assay type: cell-based, human; details: one dose 10 μM
SK-MEL-2 (melanoma) = assay: NCI 60-cell one-dose antiproliferative screen; assay type: cell-based, human; details: one dose 10 μM
OVCAR-4 (ovarian cancer) = assay: NCI 60-cell one-dose antiproliferative screen; assay type: cell-based, human; details: one dose 10 μM
CAKI-1 (renal cancer) = assay: NCI 60-cell one-dose antiproliferative screen; assay type: cell-based, human; details: one dose 10 μM
HT29 (colon cancer) = assay: NCI 60-cell one-dose antiproliferative screen; assay type: cell-based, human; details: one dose 10 μM
SN12C (renal cancer) = assay: NCI 60-cell one-dose antiproliferative screen; assay type: cell-based, human; details: one dose 10 μM
HOP-62 (NSC lung cancer) = assay: NCI 60-cell one-dose antiproliferative screen; assay type: cell-based, human; details: one dose 10 μM
HCC-2998 (colon cancer) = assay: NCI 60-cell one-dose antiproliferative screen; assay type: cell-based, human; details: one dose 10 μM
HOP-92 (NSC lung cancer) = assay: NCI 60-cell one-dose antiproliferative screen; assay type: cell-based, human; details: one dose 10 μM
MCF7 (breast cancer) = assay: NCI 60-cell one-dose antiproliferative screen; assay type: cell-based, human; details: one dose 10 μM
RPMI-8226 (leukemia) = assay: NCI 60-cell one-dose antiproliferative screen; assay type: cell-based, human; details: one dose 10 μM
[4] = tested on: NCI-H522 (NSC lung cancer); assay: NCI 60-cell one-dose antiproliferative screen; assay type: cell-based, human; details: one dose 10 μM
SK-MEL-28 (melanoma) = assay: NCI 60-cell one-dose antiproliferative screen; assay type: cell-based, human; details: one dose 10 μM
CCRF-CEM (leukemia) = assay: NCI 60-cell one-dose antiproliferative screen; assay type: cell-based, human; details: one dose 10 μM
KM12 (colon cancer) = assay: NCI 60-cell one-dose antiproliferative screen; assay type: cell-based, human; details: one dose 10 μM
786-0 (renal cancer) = assay: NCI 60-cell one-dose antiproliferative screen; assay type: cell-based, human; details: one dose 10 μM
EKVX (NSC lung cancer) = assay: NCI 60-cell one-dose antiproliferative screen; assay type: cell-based, human; details: one dose 10 μM
SF-295 (CNS cancer) = assay: NCI 60-cell one-dose antiproliferative screen; assay type: cell-based, human; details: one dose 10 μM
[5] = tested on: MDA-MB-468 (breast cancer); assay: NCI 60-cell one-dose antiproliferative screen; assay type: cell-based, human; details: one dose 10 μM
OVCAR-8 (ovarian cancer) = assay: NCI 60-cell one-dose antiproliferative screen; assay type: cell-based, human; details: one dose 10 μM
PC-3 (prostate cancer) = assay: NCI 60-cell one-dose antiproliferative screen; assay type: cell-based, human; details: one dose 10 μM
A498 (renal cancer) = assay: NCI 60-cell one-dose antiproliferative screen; assay type: cell-based, human; details: one dose 10 μM
HCT-15 (colon cancer) = assay: NCI 60-cell one-dose antiproliferative screen; assay type: cell-based, human; details: one dose 10 μM
UACC-62 (melanoma) = assay: NCI 60-cell one-dose antiproliferative screen; assay type: cell-based, human; details: one dose 10 μM
SF-539 (CNS cancer) = assay: NCI 60-cell one-dose antiproliferative screen; assay type: cell-based, human; details: one dose 10 μM
HS 578T (breast cancer) = assay: NCI 60-cell one-dose antiproliferative screen; assay type: cell-based, human; details: one dose 10 μM
ACHN (renal cancer) = assay: NCI 60-cell one-dose antiproliferative screen; assay type: cell-based, human; details: one dose 10 μM
UACC-257 (melanoma) = assay: NCI 60-cell one-dose antiproliferative screen; assay type: cell-based, human; details: one dose 10 μM
[6] = tested on: NCI/ADR-RES (ovarian cancer); assay: NCI 60-cell one-dose antiproliferative screen; assay type: cell-based, human; details: one dose 10 μM
SF-268 (CNS cancer) = assay: NCI 60-cell one-dose antiproliferative screen; assay type: cell-based, human; details: one dose 10 μM
[7] = tested on: 60 human tumor cell lines; assay: NCI 60-cell one-dose antiproliferative screen, whole panel; assay type: cell-based; details: Homo sapiens, 60 cell, read-out: Mean inhibition (mean GI%)
SK-OV-3 (ovarian cancer) = assay: NCI 60-cell one-dose antiproliferative screen; assay type: cell-based, human; details: one dose 10 μM
TK-10 (renal cancer) = assay: NCI 60-cell one-dose antiproliferative screen; assay type: cell-based, human; details: one dose 10 μM
[8] = tested on: NCI-H460 (NSC lung cancer); assay: NCI 60-cell one-dose antiproliferative screen; assay type: cell-based, human; details: one dose 10 μM
[9] = tested on: A549/ATCC (NSC lung cancer); assay: NCI 60-cell one-dose antiproliferative screen; assay type: cell-based, human; details: one dose 10 μM
U251 (CNS cancer) = assay: NCI 60-cell one-dose antiproliferative screen; assay type: cell-based, human; details: one dose 10 μM
[10] = tested on: NCI-H322M (NSC lung cancer); assay: NCI 60-cell one-dose antiproliferative screen; assay type: cell-based, human; details: one dose 10 μM
T-47D (breast cancer) = assay: NCI 60-cell one-dose antiproliferative screen; assay type: cell-based, human; details: one dose 10 μM
OVCAR-5 (ovarian cancer) = assay: NCI 60-cell one-dose antiproliferative screen; assay type: cell-based, human; details: one dose 10 μM
MALME-3M (melanoma) = assay: NCI 60-cell one-dose antiproliferative screen; assay type: cell-based, human; details: one dose 10 μM
M14 (melanoma) = assay: NCI 60-cell one-dose antiproliferative screen; assay type: cell-based, human; details: one dose 10 μM
SNB-19 (CNS cancer) = assay: NCI 60-cell one-dose antiproliferative screen; assay type: cell-based, human; details: one dose 10 μM
RXF 393 (renal cancer) = assay: NCI 60-cell one-dose antiproliferative screen; assay type: cell-based, human; details: one dose 10 μM
SW-620 (colon cancer) = assay: NCI 60-cell one-dose antiproliferative screen; assay type: cell-based, human; details: one dose 10 μM

Structure (SMILES): COc1ccc(-c2nnc3ccc(NN=Cc4ccc(C)cc4)nn23)cc1 [Compound 4f, 3-(4-Methoxyphenyl)-6-(2-(4-methylbenzylidene)hydrazinyl)-[1,2,4]triazolo[4,3-b]pyridazine]
- GI% (LOX IMIV (melanoma)): 76.27%
- GI% (OVCAR-3 (ovarian cancer)): 84.42%
- GI% [1]: 45.38%
- GI% [2]: 49.25%
- GI% (COLO-205 (colon cancer)): 20.07%
- GI% (HCT-116 (colon cancer)): 21.17%
- GI% (UO-31 (renal cancer)): 66.50%
- GI% (MDA-MB-435 (melanoma)): 35.32%
- GI% (IGROV1 (ovarian cancer)): — (— GI% is below 15%)
- GI% [3]: 34.65%
- GI% (DU-145 (prostate cancer)): 60.93%
- GI% (SK-MEL-2 (melanoma)): — (— GI% is below 15%)
- GI% (OVCAR-4 (ovarian cancer)): 63.09%
- GI% (CAKI-1 (renal cancer)): 45.37%
- GI% (HT29 (colon cancer)): 17.40%
- GI% (SN12C (renal cancer)): 23.07%
- GI% (HOP-62 (NSC lung cancer)): 29.57%
- GI% (HCC-2998 (colon cancer)): 20.85%
- GI% (HOP-92 (NSC lung cancer)): 81.11%
- GI% (MCF7 (breast cancer)): 42.84%
- GI% (RPMI-8226 (leukemia)): — (— GI% is below 15%)
- GI% [4]: — (— GI% is below 15%)
- GI% (SK-MEL-28 (melanoma)): — (— GI% is below 15%)
- GI% (CCRF-CEM (leukemia)): — (— GI% is below 15%)
- GI% (KM12 (colon cancer)): 31.89%
- GI% (786-0 (renal cancer)): 43.09%
- GI% (EKVX (NSC lung cancer)): 31.76%
- GI% (SF-295 (CNS cancer)): 43.09%
- GI% [5]: — (— GI% is below 15%)
- GI% (OVCAR-8 (ovarian cancer)): 58.61%
- GI% (PC-3 (prostate cancer)): 27.83%
- GI% (A498 (renal cancer)): — (— GI% is below 15%)
- GI% (HCT-15 (colon cancer)): 50.02%
- GI% (UACC-62 (melanoma)): — (— GI% is below 15%)
- GI% (SF-539 (CNS cancer)): 38.74%
- GI% (HS 578T (breast cancer)): 70.93%
- GI% (ACHN (renal cancer)): 41.02%
- GI% (UACC-257 (melanoma)): — (— GI% is below 15%)
- GI% [6]: 74.21%
- GI% (SF-268 (CNS cancer)): 40.91%
- inhibition at 10 µM [7]: 34.8%
- GI% (SK-OV-3 (ovarian cancer)): 20.16%
- GI% (TK-10 (renal cancer)): 17.28%
- GI% [8]: 48.83%
- GI% [9]: 66.62%
- GI% (U251 (CNS cancer)): 55.13%
- GI% [10]: — (— GI% is below 15%)
- GI% (T-47D (breast cancer)): 24.01%
- GI% (OVCAR-5 (ovarian cancer)): — (— GI% is below 15%)
- GI% (MALME-3M (melanoma)): — (— GI% is below 15%)
- GI% (M14 (melanoma)): 16.52%
- GI% (SNB-19 (CNS cancer)): — (— GI% is below 15%)
- GI% (RXF 393 (renal cancer)): 37.84%
- GI% (SW-620 (colon cancer)): — (— GI% is below 15%)
